Measurements: ChEMBL document CHEMBL3886580, “B-RAF kinase inhibitors” (2016)

Molecular target: Serine/threonine-protein kinase B-raf (Homo sapiens, UniProt P15056, V600E)
Assay: B-RAF (V600E) Kinase Assay: In a dilution series 10 uL/well of test substance solution are placed in a multiwell plate. The dilution series is selected so that generally a range of concentrations of 2 uM to 0.119 nM or 0.017 nM is covered. If necessary the initial concentration of 2 uM is changed to 50 uM, 10 uM or 0.4 uM or 0.2857 uM and further dilution is carried out accordingly. The final concentration of DMSO is 5%. 10 uL/well of the B-Raf (V600E)-kinase solution are pipetted in (containing 0.5 ng B-Raf (V600E)-kinase (e.g. from Upstate) in 20 mM Tris-HCl pH 7.5, 0.1 mM EDTA, 0.1 mM EGTA, 0.286 mM sodium orthovanadate, 10% glycerol, 1 mg/mL bovine serum albumin, 1 mM dithiothreitol) and the mixture is incubated for 1 h at RT under with shaking. The kinase reaction is started by the addition of 20 uL/well ATP solution [final concentration: 250 uM ATP, 30 mM Tris-HCl pH 7.5, 0.02% Brij, 0.2 mM sodium orthovanadate, 10 mM magnesium acetate, 0.1 mM EGTA, phosphatase cocktail (Sigma, #P2850, dilution recommended by the manufacturer)] and 10 uL/well MEK1 solution [containing 50 ng biotinylated MEK1 (prepared from purified MEK1 according to standard procedure, e.g. with EZ-Link Sulpho-NHS-LC-Biotin reagent, Pierce, #21335)] and carried out for 60 min at RT with constant shaking. The reaction is stopped by the addition of 12 uL/well of a 100 mM EDTA solution and incubation is continued for a further 5 min. 55 uL/well of the reaction solution are transferred into a streptavidin-coated plate (e.g. Streptawell HighBond, Roche, #11989685001) and shaken gently for 1 h at RT, in order to bind biotinylated MEK1 to the plate. After elimination of the liquid the plate is washed five times with 200 uL/well of 1ÿPBS and 100 uL/well solution of primary antibody plus europium-labelled secondary antibody [Anti Phospho-MEK (Ser217/221), Cell Signaling, #9121 and Eu-N1 labelled goat-anti-rabbit antibody, Perkin Elmer, #AD0105] is added, the primary antibody is diluted 1:2000 and the secondary antibody is diluted to 0.4-0.5 ug/mL in Delfia Assay Buffer (Perkin Elmer, #1244-111). After 1 h shaking at RT the solution is poured away and washed five times with 200 uL/well Delfia Wash Buffer (Perkin Elmer, #4010-0010/#1244-114). After the addition of 200 uL/well Enhancement Solution (Perkin Elmer, #4001-0010/#1244-105) the mixture is shaken for 10 min at RT and then measured in a Wallac Victor using the program "Delfia Time Resolved Fluorescence (Europium)". IC50 values are obtained from these dosage-activity curves using a software program (GraphPadPrizm).

Chain of Serine/threonine-protein kinase B-raf (P15056 2-766 V600E limits assumed): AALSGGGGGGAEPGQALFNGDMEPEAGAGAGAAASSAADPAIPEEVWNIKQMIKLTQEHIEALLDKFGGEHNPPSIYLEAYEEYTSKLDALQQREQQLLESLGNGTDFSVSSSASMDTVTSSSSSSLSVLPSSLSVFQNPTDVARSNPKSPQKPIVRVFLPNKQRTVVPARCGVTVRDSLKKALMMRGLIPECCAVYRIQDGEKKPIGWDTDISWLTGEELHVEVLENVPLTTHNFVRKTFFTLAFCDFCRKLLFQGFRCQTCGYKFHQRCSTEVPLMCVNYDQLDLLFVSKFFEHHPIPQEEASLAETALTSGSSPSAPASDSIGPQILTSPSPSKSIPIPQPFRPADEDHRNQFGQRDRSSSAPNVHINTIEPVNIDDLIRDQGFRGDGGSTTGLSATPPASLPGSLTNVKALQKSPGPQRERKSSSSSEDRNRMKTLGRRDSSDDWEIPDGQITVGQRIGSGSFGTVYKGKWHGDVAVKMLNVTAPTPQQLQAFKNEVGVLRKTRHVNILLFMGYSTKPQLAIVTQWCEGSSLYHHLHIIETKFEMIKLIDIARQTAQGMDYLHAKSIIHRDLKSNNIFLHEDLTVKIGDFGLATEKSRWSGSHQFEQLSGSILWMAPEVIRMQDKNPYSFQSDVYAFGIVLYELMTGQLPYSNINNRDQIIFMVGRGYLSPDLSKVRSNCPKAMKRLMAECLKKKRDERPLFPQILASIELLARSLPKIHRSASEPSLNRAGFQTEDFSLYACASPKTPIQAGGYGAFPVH

IC50 [nM]	Structure (SMILES)
11	CCN1CCN(c2cncc(-c3cn(-c4cc(C(=O)Nc5cc(C(C)(C)C)on5)ccc4C)nn3)c2)CC1C (stereo not given)
13	C=CCN1CCN(c2cncc(-c3cn(-c4cc(NC(=O)c5ccc(C(C)(C)C)s5)ccc4C)nn3)c2)CC1
4	Cc1ccc(NC(=O)c2ccc(C(C)(C)C)s2)cc1-n1cc(-c2cncc(N3CCNCC3)c2)nn1
6	Cc1ccc(NC(=O)c2ccc(C(C)(C)C)s2)cc1-n1cc(-c2cncc(N3CCN(C)CC3)c2)nn1
18	Cc1ccc(NC(=O)c2ccc(C(C)(C)C)s2)cc1-n1cc(-c2cncc(N3CCN(CC(C)C)CC3)c2)nn1
